In patent publication US6897200B1, “Oligonucleotide delivery systems for camptothecins” (University of Kentucky Research Foundation, priority 1998, dated 2005):

How the values were obtained:
[1] = test system: dsDNA oligonucleotide (dG-dC)15; test: Lactone ring hydrolysis in PBS in the presence of (dG-dC)15 (reversed-phase HPLC); settings: for Lactone levels following three hours of incubation: (dG-dC)15 ~30 mM base, PBS pH 7.4, room temperature; for % Lactose at Equilibrium: pH 7.4, 10 uM drug
[2] = Lactone ring hydrolysis in PBS in the absence of DNA (reversed-phase HPLC); settings: for % Lactose at Equilibrium: PBS buffer, pH 7.4, 10 uM drug; for percent lactone at equilibrium: absence of DNA, 10 μM, incubated 3 hours, PBS pH 7.4, room temperature
[3] = test system: dsDNA oligonucleotide (dA-dT)15; test: Lactone ring hydrolysis in PBS in the presence of (dA-dT)15 (reversed-phase HPLC); settings: for % Lactose at Equilibrium: pH 7.4, 10 uM drug; for Lactone levels following three hours of incubation: (dA-dT)15 ~30 mM base, PBS pH 7.4, room temperature
[4] = test system: dsDNA oligonucleotide d(CGTACG); test: NMR titration / 2D-NOESY of drug with d(CGTACG); settings: drug:DNA ratios of 1:1, 2:1 and 3:1
[5] = test system: RNA (total RNA from yeast); test: Stability of topotecan lactone in the presence of RNA (reversed-phase HPLC); format: physicochemical; settings: 1 μM topotecan
Protocol: FIG. 4 depicts the stability of topotecan in the presence of various concentrations of RNA at 22° C. In these experiments, topotecan (at a final concentration of 1 μM) was incubated in PBS, pH 7.4 in the presence of various concentrations of RNA (total RNA from yeast) for 30 min at 22° C. and analyzed for the fraction of lactone present by reversed-phase HPLC. […] As an example, in the presence of 7.5 mg/ml of RNA there exists a 10% greater amount of the lactone form than found in the absence of RNA.
FIG. 5. Stability of topotecan in the presence of various concentrations of RNA at 37° C. Topotecan (1 μM final concentration) was incubated in PBS, pH 7.4 in the presence of various concentrations of RNA (total RNA from yeast) for 30 min at 37° C. and analyzed for the fraction of lactone present by reversed-phase HPLC. At a RNA concentration of 7.5 mg/ml, 12% more of the lactone form of topotecan is present.
(§1) FIG. 6 represents a comparison of the stability of topotecan in the presence and absence of RNA at 22° C. Topotecan (1 μM final concentration) was incubated in PBS, pH 7.4 either alone (filled circles) or in the presence of 10 mg/ml of RNA (open circles) at 22° C. and analyzed for the fraction of lactone present at different times by reversed-phase HPLC.
as §1, with “7” for “6”, “37°” for “22°”, “in the absence” for “alone”

[6] = test system: duplex DNA oligonucleotides (dG-dC)15 or (dA-dT)15; test: UV absorption spectra of drug lactone with duplex DNA oligonucleotides; settings: for DNA sequence preference (UV and HPLC data): (dG-dC)15 versus (dA-dT)15; for UV spectral change in the presence of DNA: PBS pH 5, 10 μM drug, (dG-dC)15 16 mM base or (dA-dT)15 24 mM base
[7] = test system: single-strand DNA (ssDNA) (dT)30; test: Lactone stability in the presence of single-strand DNA (HPLC); format: physicochemical; settings: ~33 mM base (dT)30; dsDNA 10- to 100-fold more dilute gives approximately equal stabilization
Text: Note how the presence of DNA markedly stabilizes the biologically-active form of the camptothecins drugs. […] . But it is clear from our work that camptothecin drugs can interact with ssDNA as well as RNA (see FIGS. 4 through 7) and these interactions stabilize the biologically-active lactone forms of these agents.

dsDNA = test: Relactonization of carboxylate forms in dsDNA solutions (HPLC); settings: ~30 mM base dsDNA in PBS, room temperature, after 30 hrs
[8] = test system: double-stranded DNA (dsDNA); test: Fluorescence emission spectra of SN-38 lactone with DNA; format: binding; settings: SN-38 lactone 1 μM, spectra within 2 min
Protocol: FIG. 8 depicts the marked shifting of the fluorescence emission spectra of SN-38 lactone (1 μM final concentration) in the presence of double-stranded DNA (dsDNA). SN38 contains a 10-hydroxy-nctionality which results in the molecule having a fluorescence emission which is highly sensitive to the presence of water in the surrounding microenvironment. […] Note how the agent fluoresces in the 410 nm to 460 nm region when water is not present, but fluoresces at 520 to 530 nm when water is present. […] The fluorophore was directly added to the DNA solution and the spectra recorded immediately (within 2 min.) prior to any significant conversion of the agent to carboxylate form.
To gain mechanistic insight into why the stabilization occurs, fluorescence spectroscopic scans of SN-38 lactone in the presence and absence of DNA were recorded.
Our results thus provide the first evidence that duplex DNA devoid of TopoI may play a functional role in the biological activities of the camptothecin drugs through the promotion of active lactone levels within the cell nucleus. […] The DNA-associated drugs are likely to be in their active lactone forms and ready for the subsequent drug-DNA-enzyme complex formation.

| greater amount of the lactone form than in the absence of RNA ([5]; 7.5 mg/ml RNA, PBS pH 7.4, 30 min, 22 °C) [%] | more of the lactone form present than without RNA ([5]; 7.5 mg/ml RNA, PBS pH 7.4, 30 min, 37 °C) [%] | more of the lactone form present than without RNA ([5]; 10 mg/ml RNA, PBS pH 7.4, after 3 hrs, 22 °C) [%] | more of the lactone form present than without RNA ([5]; 10 mg/ml RNA, PBS pH 7.4, after 3 hrs, 37 °C) [%] | SMILES | Lactone levels following three hours of incubation [1] | % Lactose at Equilibrium ([2]; 22 °C) [%] | % Lactose at Equilibrium ([2]; 37 °C) [%] | percent lactone at equilibrium [2] [%] | % Lactose at Equilibrium ([3]; (dA-dT)15, 22 °C) [%] | % Lactose at Equilibrium ([3]; (dA-dT)15, 37 °C) [%] | Lactone levels following three hours of incubation [3] [%] | drug binding to DNA (2D-NOESY) [4] | DNA sequence preference (UV and HPLC data) [6] | UV spectral change in the presence of DNA [6] | effect of ssDNA on lactone stabilization (versus dsDNA) [7] | % Lactose at Equilibrium ([1]; (dG-dC)15, 22 °C) [%] | % Lactose at Equilibrium ([1]; (dG-dC)15, 37 °C) [%] | active lactone level after relactonization of pure carboxylate form (dsDNA) [%] | direct binding of lactone form to DNA (fluorescence spectral shift) [8] |
| --- | --- | --- | --- | --- | --- | --- | --- | --- | --- | --- | --- | --- | --- | --- | --- | --- | --- | --- | --- |
| – | – | – | – | CC[C@@]1(O)C(=O)OCc2c1cc1n(c2=O)Cc2cc3ccccc3nc2-1 [camptothecin] | above 80% | – | – | – | – | – | – | – | – | – | – | – | – | – | – |
| 10 | 12 | 25 | 15 | CC[C@@]1(O)C(=O)OCc2c1cc1n(c2=O)Cc2cc3c(CN(C)C)c(O)ccc3nc2-1 [TPT, topotecan] | 95% | 15 ± 1 | 10 ± 1 | 12 | −50 | 19 ± 2 | 78 | clearly consistent with drug binding to DNA | sequence preference of (dG-dC)15 over (dA-dT)15 | substantial hypochromic and red spectral shift | significantly diminished effects on stabilizing | −50 | 26 ± 2 | ~30 | – |
| – | – | – | – | CCc1c2c(nc3ccc(OC(=O)N4CCC(N5CCCCC5)CC4)cc13)-c1cc3c(c(=O)n1C2)COC(=O)[C@]3(O)CC [CPT-11] | 95% | 17 ± 1 | 8 ± 2 | 24 | −50 | 29 ± 2 | 95 | clearly consistent with drug binding to DNA | no signs of any sequence preference | substantial hypochromic and red spectral shift | significantly diminished effects on stabilizing | −50 | 30 ± 2 | ~30 | – |
| – | – | – | – | CCc1c2c(nc3ccc(O)cc13)-c1cc3c(c(=O)n1C2)COC(=O)[C@]3(O)CC [SN-38, 7-ethyl-10-hydroxycamptothecin] | – | – | – | – | – | – | – | – | – | – | – | – | – | – | binds the DNA |
